The results in this text go back to patent US12377083B2 (WUHAN LL SCIENCE AND TECHNOLOGY DEVELOPMENT CO., LTD., priority 2019, dated 2025).

The structures appear in SMILES notation. Read-outs that look alike come from different tables or passages of the source.

Experiment [1] concerns the target hLPAR1 (human lysophosphatidic acid receptor 1) (Homo sapiens, UniProt Q92633). Briefly: FLIPR assay of intracellular calcium increase induced by activation of hLPAR1 expressed in CHO-K1 cells. Format: cell-based. The note with it: CHO-K1 cells expressing hLPAR1, agonist oleoyl-L-α-lysophosphatidic acid 1 μM. The method, then:
The antagonist property of the compounds disclosed herein was determined using the FLIPR (fluorescence imaging plate reader) method, wherein the compounds are inhibitors for the intracellular calcium increase induced by activation of hLPAR1 (human lysophosphatidic acid receptor 1, accession No. NM_001401.4) expressed in CHO-K1 cells (Chinese hamster ovary cells K1, ATCC).
Cells at 250,000 cells/mL were seeded into a 96-well plate (25,000 cells/well) 18-24 h prior to the FLIPR experiment and then incubated overnight in a cell incubator. […] Each well was added with 75 μL of […] Fluo-4 AM fluorescent dye (Thermo, F14202) and then the cells were subjected to dye-loading incubation at 37° C. for 1.0 h. The 96-well plate was then washed once with buffer, added with a buffer containing a test compound or a vehicle at 50 μL per well and then incubated for 30 min at room temperature. […] An agonist (oleoyl-L-α-lysophosphatidic acid sodium salt (Sigma, L7260)) at a final concentration of 1 μM or a vehicle (ultrapure water) was then added at 50 μL/well, fluorescence values were measured for 2 min at 1-second intervals, and finally the output fluorescence counts were analyzed.

Experiment [2] deals with A2058 (human melanoma cells). Briefly: A2058 cell scratch (migration) assay with LPA. The note with it: 10 μM LPA, scratch area at 24 h. Format: cell-based. The method, then: The activity of the compounds disclosed herein at the cell level in vitro is evaluated by A2058 (human melanoma cells, Beina Bio, BNCC341099) cell scratch assay. The inhibitory activity of the compounds against LPAR1 can be reflected by inhibition of cell scratch healing.
After the cell confluence reached 80%, the cell culture plate was taken out and the original medium was discarded. Serum-free medium was then added, and the cells were starved overnight in an incubator (37° C., 5% CO2). The cell culture plate was then taken out, and cell scratches were made along the diameter of the wells using a 200 μL pipette tip. The cell culture plate was then added with 500 μL of serum-free medium and then shaken gently to wash away the residual cells on the scratched surface, and this was repeated twice. The medium was discarded and 500 μL of 1% FBS medium containing the compound was then added, and the mixture was incubated at 37° C. for 30 min. […] Olympus CKX53 was used to observe the scratches, and MShot image analysis system was used to take pictures and measure the scratch area at 0 h. The plate was incubated in the incubator under the conditions of 37° C. and 5% CO2. 24 h later, the scratches were observed again with Olympus CKX53, and MShot image analysis system was used to take pictures and measure the scratch area at 24 h. Cell migration inhibition rate was calculated according to the following formula: […]

hLPAR1 (human lysophosphatidic acid receptor 1), sequence (Q92633 whole entry): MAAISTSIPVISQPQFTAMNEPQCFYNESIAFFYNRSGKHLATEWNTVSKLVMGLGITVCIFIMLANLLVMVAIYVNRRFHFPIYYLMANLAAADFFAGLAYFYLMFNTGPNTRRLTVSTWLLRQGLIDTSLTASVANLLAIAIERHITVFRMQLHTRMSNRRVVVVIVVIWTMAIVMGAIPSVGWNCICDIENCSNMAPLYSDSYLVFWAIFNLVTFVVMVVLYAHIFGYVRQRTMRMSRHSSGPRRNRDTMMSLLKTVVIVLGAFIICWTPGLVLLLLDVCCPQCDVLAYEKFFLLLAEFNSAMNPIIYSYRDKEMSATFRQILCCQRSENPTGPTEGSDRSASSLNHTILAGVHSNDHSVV

With `CN(C(=O)OCc1cncnc1-c1ccc(O[C@H]2CCC[C@H](C(=O)O)C2)cc1)C1CCCC1` (racemic) [Compound 76], the IC50 (in general, the concentration that gives 50% inhibition) in experiment [1] (read-out: LPAR1 IC50) fell in the range of 0.3 to 10 µM. As for `Cc1onc(-c2ccc(O[C@H]3CCC[C@H](C(=O)O)C3)c(C(F)(F)F)n2)c1COC(=O)N(C)C1CCCC1` [Compound 80], the IC50 in experiment [1] (read-out: LPAR1 IC50) was less than 0.05 µM.

For the compound `Cc1nc(-c2c(C(F)(F)F)nn(C)c2COC(=O)N(C)C2CCCC2)ccc1O[C@H]1CCC[C@H](C(=O)O)C1` (racemic) [Compound 85], in experiment [1] (read-out: LPAR1 IC50), the IC50 was in the range of 0.05 to 0.3 µM. In the case of `Cc1onc(-c2cnc(O[C@H]3CCC[C@H](C(=O)O)C3)cn2)c1COC(=O)N(C)C1CCCC1` (racemic) [Compound 102], the IC50 in experiment [1] (read-out: LPAR1 IC50) is less than 0.05 µM. Moreover, the “Cell migration inhibition rate (%)” value in experiment [2] is listed as “A (A: 50-70%)”.

For `CN(CC1CCCC1)C(=O)OCc1c(-c2ccc(O[C@H]3CCC[C@H](C(=O)O)C3)c(F)n2)cnn1C` (racemic) [Compound 77], the IC50 in experiment [1] (read-out: LPAR1 IC50) was less than 0.05 µM. With `CN(C(=O)OCc1c(-c2cnc(O[C@H]3CCC[C@H](C(=O)O)C3)c(C#N)n2)cnn1C)C1CCCC1` (racemic) [Compound 104, (+/−)-(1S,3S)-3-((3-cyano-5-(5-(((cyclopentyl(methyl)carbamoyl)oxy)methyl)-1-methyl-1H-pyrazol-4-yl)pyrazin-2-yl)oxy)cyclohexane-1-carboxylic Acid], the IC50 in experiment [1] (read-out: LPAR1 IC50) was less than 0.05 µM. For the same compound, the “Cell migration inhibition rate (%)” value in experiment [2] is “C (C: 0-30%)”. For the compound `CN(C(=O)OCc1cnncc1-c1ccc(O[C@H]2CCC[C@H](C(=O)O)C2)cc1)C1CCCC1` (racemic) [Compound 74], the IC50 in experiment [1] (read-out: LPAR1 IC50) fell in the range of 0.3 to 10 µM. For `Cc1nsc(-c2ccc(O[C@H]3CCC[C@H](C(=O)O)C3)c(C(F)(F)F)n2)c1COC(=O)N(C)C1CCCC1` (racemic) [Compound 84], the IC50 in experiment [1] (read-out: LPAR1 IC50) was less than 0.05 µM.

Turning to `Cc1noc(-c2ccc(O[C@H]3CCC[C@H](C(=O)O)C3)c(F)c2)c1COC(=O)N(C)C1CCCC1` (racemic) [Compound 86], the IC50 in experiment [1] (read-out: LPAR1 IC50) is less than 0.05 µM.

With `CN(C(=O)OCc1c(-c2ccc(O[C@H]3CCC[C@H](C(=O)O)C3)c(CO)n2)cnn1C)C1CCC1` (racemic) [Compound 116, (+/−)-(1S,3S)-3-((6-(5-(((cyclobutyl(methyl)carbamoyl)oxy)methyl)-1-methyl-1H-pyrazol-4-yl)-2-(hydroxymethyl)pyridin-3-yl)oxy)cyclohexane-1-carboxylic Acid], in experiment [1] (read-out: LPAR1 IC50), the IC50 was 0.3 to 10 µM. Besides, in experiment [2], the “Cell migration inhibition rate (%)” value is “B (B: 30-50%)”. As for `CN(CC1CCCC1)C(=O)OCc1c(-c2ccc(O[C@H]3CCC[C@H](C(=O)O)C3)c(C#N)n2)cnn1C` [Compound 78], the IC50 in experiment [1] (read-out: LPAR1 IC50) lay in the range of 0.05 to 0.3 µM. With `CN(C(=O)OCc1c(-c2ccc(O[C@H]3CCC[C@H](C(=O)O)C3)c(O)n2)cnn1C)C1CCCC1` (racemic) [Compound 114, (+/−)-(1S,3S)-3-((6-(5-(((cyclopentyl(methyl)carbamoyl)oxy)methyl)-1-methyl-1H-pyrazol-4-yl)-2-hydroxypyridin-3-yl)oxy)cyclohexane-1-carboxylic Acid], in experiment [1] (read-out: LPAR1 IC50), the IC50 lay in the range of 0.3 to 10 µM. The “Cell migration inhibition rate (%)” value in experiment [2] is on record as “C (C: 0-30%)”. With `Cc1nc(-c2onc(C)c2COC(=O)N(C)C2CCCC2)cnc1O[C@H]1CCC[C@H](C(=O)O)C1` (racemic) [Compound 90], the IC50 in experiment [1] (read-out: LPAR1 IC50) was less than 0.05 µM.

For the compound `CN(C(=O)OCc1c(-c2ccc(O[C@H]3CCC[C@H](C(=O)O)C3)c(N3CC(O)C3)n2)cnn1C)C1CCC1` (racemic) [Compound 107], in experiment [1] (read-out: LPAR1 IC50), the IC50 was in the range of 0.3 to 10 µM. Take `CN(C(=O)COc1c(-c2ccc(O[C@H]3CCC[C@H](C(=O)O)C3)c(N3CCOCC3)n2)cnn1C)C1CCC1` (racemic) [Compound 115]: the IC50 in experiment [1] (read-out: LPAR1 IC50) lay within 0.3 to 10 µM. In addition, the “Cell migration inhibition rate (%)” value in experiment [2] is “C (C: 0-30%)”. On to `CN(C(=O)OCc1c(-c2cnc(O[C@H]3CCC[C@H](C(=O)O)C3)c(O)n2)cnn1C)C1CCCC1` (racemic) [Compound 117], for which the IC50 in experiment [1] (read-out: LPAR1 IC50) lay in the range of 0.3 to 10 µM. Moreover, in experiment [2], the “Cell migration inhibition rate (%)” value is “B (B: 30-50%)”. `Cc1onc(-c2ccc(O[C@H]3CCC[C@H](C(=O)O)C3)cn2)c1COC(=O)N(C)C1CCCC1` (racemic) [Compound 79]: the IC50 in experiment [1] (read-out: LPAR1 IC50) was less than 0.05 µM. On the same count and under the same terms, as for `Cc1snc(-c2ccc(O[C@H]3CCC[C@H](C(=O)O)C3)c(C(F)(F)F)n2)c1COC(=O)N(C)C1CCCC1` [Compound 82], the figure is less than 0.05 µM.

For `CN(Cc1ccccc1)C(=O)OCc1oncc1-c1ccc(O[C@H]2CCC[C@H](C(=O)O)C2)cc1` (racemic) [Compound 68], the IC50 in experiment [1] (read-out: LPAR1 IC50) lay within 0.3 to 10 µM. On to `COc1nn(C)c(COC(=O)N(C)C2CCCC2)c1-c1ccc(O[C@H]2CCC[C@H](C(=O)O)C2)c(C)n1` (racemic) [Compound 88, (+/−)-(1S,3S)-3-((6-(5-(((cyclopentyl(methyl)carbamoyl)oxy)methyl)-3-methoxy-1-methyl-1H-pyrazol-4-yl)-2-methylpyridin-3-yl)oxy)cyclohexane-1-carboxylic Acid], for which the IC50 in experiment [1] (read-out: LPAR1 IC50) lay in the range of 0.05 to 0.3 µM. Besides, the “Cell migration inhibition rate (%)” value in experiment [2] was “C (C: 0-30%)”. For the compound `Cc1noc(-c2ccc(O[C@H]3CCC[C@H](C(=O)O)C3)cc2)c1OC(=O)N(C)C1CCCC1` (racemic) [Compound 69], in experiment [1] (LPAR1 IC50 (μM)), the IC50 fell in the range of 0.3 to 10 µM. On to `Cc1nc(-c2c(COC(=O)N(C)C3CCCC3)n(C)[nH]c2=O)ccc1O[C@H]1CCC[C@H](C(=O)O)C1` (racemic) [Compound 99], for which the IC50 in experiment [1] (read-out: LPAR1 IC50) was 0.3 to 10 µM. For `CN(C(=O)OCc1c(-c2ccc(O[C@H]3CCC[C@H](C(=O)O)C3)c(C#N)n2)cnn1C)C1CCC1` (racemic) [Compound 112, (+/−)-(1S,3S)-3-((2-cyano-6-(5-(((cyclobutyl(methyl)carbamoyl)oxy)methyl)-1-methyl-1H-pyrazol-4-yl)pyridin-3-yl)oxy)cyclohexane-1-carboxylic Acid], the IC50 in experiment [1] (read-out: LPAR1 IC50) was in the range of 0.05 to 0.3 µM. Moreover, the “Cell migration inhibition rate (%)” value in experiment [2] is given as “B (B: 30-50%)”. Take `CN(C(=O)OCc1c(-c2ccc(O[C@H]3CCC[C@H](C(=O)O)C3)c(N)n2)cnn1C)C1CCC1` (racemic) [Compound 113, (+/−)-(1S,3S)-3-((2-amino-6-(5-(((cyclobutyl(methyl)carbamoyl)oxy)methyl)-1-methyl-1H-pyrazol-4-yl)pyridin-3-yl)oxy)cyclohexane-1-carboxylic Acid]: the IC50 in experiment [1] (read-out: LPAR1 IC50) lay within 0.3 to 10 µM. Also, the “Cell migration inhibition rate (%)” value in experiment [2] is “C (C: 0-30%)”. As to `Cc1snc(-c2ccc(O[C@H]3CCC[C@H](C(=O)O)C3)cn2)c1COC(=O)N(C)C1CCCC1` (racemic) [Compound 81], the IC50 in experiment [1] (read-out: LPAR1 IC50) fell in the range of 0.05 to 0.3 µM.

`Cc1onc(-c2cnc(O[C@H]3CCC[C@H](C(=O)O)C3)c(F)n2)c1COC(=O)N(C)C1CCCC1` (racemic) [Compound 101]: in experiment [1] (read-out: LPAR1 IC50), the concentration for half-maximal inhibition (IC50) was less than 0.05 µM. Consider `Cc1nsc(-c2ccc(O[C@H]3CCC[C@H](C(=O)O)C3)cn2)c1COC(=O)N(C)C1CCCC1` (racemic) [Compound 83], for which the IC50 in experiment [1] (read-out: LPAR1 IC50) was 0.05 to 0.3 µM.

For `CN(C(=O)OCc1c(-c2ccc(C3CCC[C@H](C(=O)O)C3)cc2)cnn1C)C1CCCC1` (mixture of isomers) [Compound 73], the IC50 in experiment [1] (read-out: LPAR1 IC50) lay in the range of 0.3 to 10 µM. For the compound `CN(C(=O)OCc1oncc1-c1ccc(O[C@H]2CCC[C@H](C(=O)O)C2)cc1)C1CCCC1` (racemic) [Compound 72], in experiment [1] (read-out: LPAR1 IC50), the IC50 was in the range of 0.3 to 10 µM. Still for that read-out and setting: the figure for `CN(C(=O)OCc1c(-c2ccc(O[C@H]3CCC[C@H](C(=O)O)C3)c(OCCO)n2)cnn1C)C1CCC1` (racemic) [Compound 111] is 0.3 to 10 µM. The same measure, in the same setting: as for `Cc1nc(-c2c(N)nn(C)c2COC(=O)N(C)C2CCCC2)ccc1O[C@H]1CCC[C@H](C(=O)O)C1` (racemic) [Compound 87], the figure is 0.05 to 0.3 µM. As to `Cc1nc(-c2cnn(C)c2COC(=O)N2CC3CCC2CO3)ccc1O[C@H]1CCC[C@H](C(=O)O)C1` (mixture of isomers) [Compound 96], the IC50 in experiment [1] (read-out: LPAR1 IC50) lay within 0.3 to 10 µM. In the case of `Cc1ccn(-c2ccc(O[C@H]3CCC[C@H](C(=O)O)C3)cc2)c1N(C)C(=O)OC1CCCC1` (racemic) [Compound 71], the IC50 in experiment [1] (read-out: LPAR1 IC50) lay in the range of 0.3 to 10 µM. Still for that read-out and setting: the figure for `CN(C(=O)OCc1c(-c2cnc(O[C@H]3CCC[C@H](C(=O)O)C3)c(F)n2)cnn1C)C1CCCC1` (racemic) [Compound 103, (+/−)-(1S,3S)-3-((5-(5-(((cyclopentyl(methyl)carbamoyl)oxy)methyl)-1-methyl-1H-pyrazol-4-yl)-3-fluoropyrazin-2-yl)oxy)cyclohexane-1-carboxylic Acid] is less than 0.05 µM. As to `Cc1cnn(-c2ccc(O[C@H]3CCC[C@H](C(=O)O)C3)cc2)c1N(C)C(=O)OC1CCCC1` (racemic) [Compound 70], the IC50 in experiment [1] (read-out: LPAR1 IC50) lay within 0.3 to 10 µM.

As for `CN(C(=O)OCc1cnccc1-c1ccc(O[C@H]2CCC[C@H](C(=O)O)C2)cc1)C1CCCC1` [Compound 75], the IC50 in experiment [1] (LPAR1 IC50 (μM)) was 0.3 to 10 µM.
